In ChEMBL document CHEMBL1142582, “Lignans and their degraded derivatives from Sarcostemma acidum” (2005):
Values after ≈ are worked out from the molar mass of the structure shown.

Key:
Assay type in all cases: functional
Staphylococcus aureus = assay: Antimicrobial activity against Staphylococcus aureus ATCC 25923 after 18 hrs by broth microdilution test; conditions: ATCC 25923, 18 h
Candida albicans = assay: Antimicrobial activity against Candida albicans ATCC 1600 after 48 hrs by broth microdilution test; conditions: ATCC 1600, 48 h
[1] = system: Staphylococcus epidermidis; assay: Antimicrobial activity against Staphylococcus epidermidis ATCC 12228 after 18 hrs by broth microdilution test; conditions: ATCC 12228, 18 h

COc1cc([C@@H]2c3cc(OC)c(O)c(OC)c3C=C(C)[C@H]2C)cc(OC)c1O (relative stereo) [SACIDUMLIGNAN B]
MIC (Staphylococcus aureus): > 130 µM | MIC (Candida albicans): > 130 µM | MIC [1]: > 130 µM

C=CCc1ccc(O)c(-c2cc(CC=C)ccc2O)c1 [MAGNOLOL]
MIC (Staphylococcus aureus): 47 µM (≈ 12.5 µg/mL) | MIC [1]: 23 µM (≈ 6.13 µg/mL)

COC(=O)C1=CC[C@@]23CC[C@@H]([C@@](C)(/C=C/C=C(\C)C(=O)O)OC2=O)[C@@]3(OC(C)=O)CC1 [PSEUDOLARIC ACID B]
MIC (Candida albicans): 14 µM (≈ 6.05 µg/mL)

COc1cc(-c2c(C)c(C)cc3c(OC)c(O)c(OC)cc23)cc(OC)c1O [SACIDUMLIGNAN A]
MIC (Staphylococcus aureus): 130 µM (≈ 50 µg/mL) | MIC (Candida albicans): > 130 µM | MIC [1]: 65 µM (≈ 25 µg/mL)
